Data: article PMC5848173, “PhcrTx2, a New Crab-Paralyzing Peptide Toxin from the Sea Anemone Phymanthus crucifer” (Toxins, 2018)
No end group written: not given here.

Columns and labels:
[1] = test system: glutamate-gated currents in snail neurons; test: Glutamate-gated currents in isolated snail neurons (whole-cell patch clamp); format: cell-based, Helix aspersa; settings: glutamate 1 mM
Procedure: The effects of PhcrTx2 were studied in isolated mammalian and snail neurons using the whole cell patch-clamp technique. Animal care and procedures were in accordance with the National Institutes of Health Guide for the Care and Use of Laboratory Animals. All efforts were made to minimize animal suffering. The number of animals used for this work was kept to the minimum necessary for a meaningful interpretation of the data.
Experiments to study glutamate-activated currents were performed in isolated neurons of the land snail Helix aspersa. The subesophageal mass of the snail was dissected, and put into the Ringer solution for snails (Supplementary Table S4) containing trypsin (2 mg/mL for 30 min, at 37 °C). After enzymatic treatment, the preparation was washed with normal solution for snails, and the neurons were mechanically dissociated, plated on glass coverslips (Corning) pretreated with poly-D-lysine (Sigma-Aldrich), and placed onto 35-mm culture dishes (Corning). Neurons were maintained at room temperature (23–25 °C) for at least 30 min before using, in order to allow the isolated cells to adhere to the coverslips. The whole-cell recording was carried out using the same experimental conditions that were described in Section 5.2.2.
Glutamate currents were elicited by a fast glutamate application (about 40 ms) by shifting one of the three outlets of a fast change perfusion system (SF-77B, Warner Inst., Hamden, CT, USA) while keeping the cell at a holding potential (Vh) of −100 mV. The interval between glutamate applications was one minute, to guarantee that the current completely recovered from desensitization. The pH of glutamate solution was checked before each experiment to avoid the potential activation of proton-gated currents. At the beginning of this study, experiments were designed to compare the effect of the toxin using two application protocols.
The solutions used in the experiments are depicted in Supplementary Table S4. The concentration-response curves were fitted to the Hill equation following the procedure described in Section 5.2.2.

[2] = Anthopleura elegantissima toxins; ref [5],[38]; cited from earlier work
Description: (§1) The inhibition of PhcrTx2 on glutamate-gated currents in snail neurons, and also on voltage-activated K^+ currents in DRG neurons, seems to be of about similar potency and slightly different in efficacy. PhcrTx2 also acted on voltage-dependent Na^+-channels of DRG neurons but with lower efficacy, in comparison with its effect on K^+ channels. […] These facts resemble previous re ...

ASIC3 = settings: ref [38], cited from earlier work
Description: as §1

Kv3.4 channels = settings: ref [38],[58]; cited from earlier work
Description: as §1

[3] = test system: heteromeric channels that contain the ASIC3 subunit; settings: except the ASIC2a + 3 current; ref [38]; cited from earlier work
Description: as §1

[4] = test system: insect and mammalian Nav channels; settings: ref [38],[58]; cited from earlier work
Description: as §1

crabs = settings: Antheopsis maculata toxin; ref [21]; cited from earlier work
Description: Many of these peptides have been classified as voltage-gated sodium channel toxins, whereas few other crab-paralyzing peptides act on different targets, such as voltage-gated potassium channels. On the other hand, other paralyzing toxins seem to belong to new classes of toxins. In this work, we found a diversity of paralyzing toxins from the sea anemone P. crucifer by using a crab toxicity assay for biological activity screening during the purification process. Sixteen chromatographic fractions sh ... || (+ 1 further places)

N[C@@H](CCC(=O)O)C(=O)O [glutamate]
glutamate-evoked current at positive potential ([1]; 80 mV, n = 5): 0.3 ± 0.1 nA | glutamate-evoked current ([1]; holding potential −100 mV, n = 5, average): about 2.6 ± 1.4 nA | reversal potential of glutamate-evoked current ([1]; average, "close to"): ~0 mV

APETx2: toxin from Anthopleura elegantissima, ASIC3 blocker (UniProtKB P61542) (GTACSCGNSKGIYWFYRPSCPTDRGYTGSCRYFLGTCCTPAD; UniProt P61542 1-42, looked up)
target selectivity [2]: lack of target selectivity | IC50 (ASIC3; reversible blocker, read-out: IC50, peak component of the ASIC3 current): 0.063 µM | effect on the sustained component of ASIC3 current (ASIC3; sustained component): no effect | inhibition of Kv3.4 channels (Kv3.4 channels): partially inhibits Kv3.4 channels | effect on heteromeric channels containing ASIC3 [3]: affects heteromeric channels that contain the ASIC3 subunit, except the ASIC2a + 3 current | effect on Nav channels [4]: inhibiting the sodium conductance without affecting the inactivation and shifting activation to a depolarizing direction

Am II: crab-paralyzing toxin from Antheopsis maculata (UniProtKB P69930) (ALLSCRCEGKTEYGDKWLFHGGCPNNYGYNYKCFMKPGAVCCYPQN; ends and bridges not checked; cysteine pairing not given here; UniProt P69930 33-78, looked up)
crab-paralyzing activity (crabs): crab-paralyzing toxin

APETx1: toxin from Anthopleura elegantissima (UniProtKB P61541) (GTTCYCGKTIGIYWFGTKTCPSNRGYTGSCGYFLGICCYPVD; UniProt P61541 1-42, looked up)
target selectivity [2]: lack of target selectivity
